From patent US4789736A, “Complexes of technetium-99m with propylene amine oximes” (Amersham International plc, priority 1985, dated 1988)
Entries after “also recorded” stand apart in the source; their conditions may differ. Like-named read-outs stand apart in the source and are kept apart here.

Tests used:
[1] = rat, in vivo
Protocol: (§2) 0.1 ml of the Tc-99m complex solution was administered by intravenous injection (lateral tail vein) to each of five or six rats (140-220 g). The injected dose was equivalent to approximately 1 mCi of Tc-99m. Three rats were sacrificed at 2 minutes post injection, and 3 at 1 hour or 2 at 2 hours post injection. At dissection, the organs and blood samples shown in the following table were taken, and assayed for radioactivity. The uptake in each organ or tissue was calculated as a percentage of the total activity recovered.
(§3) Data in Tables (a) and (b) are the mean from 3 animals at each time point.

[2] = Clinical comparison of d, l and dl stereoisomers of Compound 1 (Example 25b); format: in vivo, normal volunteers (human); conditions: 30 minutes p.i.; mean of three studies; human
Protocol: The following table gives the mean of three studies for each stereoisomer, of percentage of injected dose in normal volunteers at 30 minutes p.i.

[3] = Clinical comparison of dl and meso diastereoisomers of Compound 1, whole body scanning (Example 25a); format: in vivo, normal volunteer subjects (human); conditions: 20 minutes p.i.; mean; human
Protocol: All clinical studies, involving comparisons between the Tc-99m complexes of dl and meso, and d,l and dl stereoisomers of Compound 1 were conducted in normal volunteer subjects at Aberdeen Royal Infirmary.
(a) Comparison of dl and meso diastereoisomers of Compound 1
Data is then taken from area of interest studies employing a whole body scanning device.

[4] = Whole body distribution in human volunteers; format: in vivo, human volunteer subjects; conditions: unseparated dl/meso mixture; for Whole body distribution, Bladder / Whole body distribution, Brain / Whole body distribution, Liver: 2 hrs p.i., human
From the text: (§1) The following data allows comparison of the relative performance of the complexes of compounds 1 and 2 (an unseparated dl/meso mixture in each case) in human volunteer subjects.
(ii) Whole body distribution

[5] = Tomographic imaging of the brain in man; format: in vivo, normal volunteers (human); conditions: in words; unseparated dl/meso mixture; human
Protocol: Tomographic images of the brain were determined using the same complexes in normal volunteers. The device used was a single head rotating gamma camera and minicomputer system. 64 25-second images were accumulated by the gamma camera during 360° circular rotation of the head and shoulders of the volunteer.

leucocytes = assay: In vitro labelling of leucocytes; format: cell-based; conditions: ambient temperature
Protocol: A solution of the technetium-99m complex of compound 1 was made as follows. A vial contained 0.5 mg compound 1; […] stannous chloride dihydrate; and 4.5 mg sodium chloride; freeze-dried and sealed under nitrogen. To this was added 5.0 ml of sodium pertechnetate eluate from a 135mCi technetium generator.
Mixed leucocytes were obtained from 34 ml of acid citrate anticoagulated blood by dextran sedimentation. These were washed twice and resuspended in 2.0 ml phosphate buffered saline containing approximately 0.25 mg/ml prostaglandin El. The suspension was incubated with 0.2 ml of the solution of the technetium-99m complex of compound 1. Incubation was at ambient temperature, and samples were removed at intervals for analysis. After two minutes, 60% of the radioactivity was associated with blood cells; after 5 minutes, 83% and after 10 minutes, 89%.

[6] = Blood clearance in human volunteers; format: in vivo, human volunteer subjects; conditions: for % id in blood: unseparated dl/meso mixture, human
From the text: as §1

[7] = In vitro stability of Tc-99m complexes (radiochemical purity by thin layer chromatography); format: physicochemical; conditions: for remaining at 2 min: 2 min post formation; for remaining at 2 min / remaining at 1 h / remaining at 2 h: dl/meso mixture, read-out: % of the desired Tc-99m complex; for remaining at 1 h: 60 min post formation; for remaining at 2 h: 120 min post formation; for in vitro stability of the Tc-99m complex: in words, complex of compound 1 versus compound 2
Protocol: Glass fibre strips impregnated with silica gel form the stationary phase of a fast and accurate analytical system. Two strips, each measuring 20 cm×2 cm were used in each analysis. Approximately five microliters of the solution containing the complex was applied 1 cm from the base of each strip, and one strip developed with saline, the other with methylethylketone (MEK).
Determination of the distribution of radioactivity along each strip was conducted by means of a 100 channel analysis system interfaced to a Nova computer, programmed for peak integration. The Table below indicates the RF values of the major components of the Tc-99m solutions. The observed radiochemical purity of the Tc-99m complexes was generally greater than 80%.
Radiochemical purity determinations by thin layer chromatography were carried out at several time points following formation of the technetium complexes of compounds 1 and 2 (a dl/meso mixture in each case) to determine the stability of the complexes.

[8] = Rat biodistribution of Tc-99m complexes from isolated stereoisomers (Example 24); conditions: for % id/organ, Blood / % id/organ, Brain / % id/organ, Heart / % id/organ, Liver: (a) diastereoisomers, mean from 3 animals
Protocol: as §2, §3

[9] = Animal biodistribution of Tc-99m complexes of ligands, no separation of stereoisomers (Example 22); format: in vivo, rats; conditions: for % id/organ, Blood / % id/organ, Brain / % id/organ, Heart / % id/organ, Liver: i.v. rats, mean of 3 animals
Protocol: The ratio of diastereoisomers in the Tc-99m complexes used in this experiment is not known.
The results at 2 minutes and 1 hour p.i. are the mean of 3 animals.
The results at 2 hours p.i. are the mean of 2 animals.

[10] = Rat biodistribution of Tc-99m complexes of separated diastereoisomers of compound 1 (Example 23); format: in vivo, rats; conditions: for % id/organ, Blood / % id/organ, Brain / % id/organ, Liver: rats
From the text: The experiment of Example 22 was repeated using the separated diastereoisomers of compound 1. The results are given in the Table below and should be compared to those for compound 1 (the mixture) in the Table in […].

For `CC(=NO)C(C)NCC(C)CNC(C)C(C)=NO` (stereo not shown) [Compound 1 1], the “% id/organ, Blood” value ([1]; 2 min) was 11.0 % id/organ, the “% id/organ, Brain” value ([1]; 2 min) was 2.6 % id/organ and the “% id/organ, Liver” value ([1]; 2 min) was 9.6 % id/organ. For the same molecule, the “% id/organ, Blood” value ([1]; 60 min) was 11.1 % id/organ, the “% id/organ, Brain” value ([1]; 60 min) was 2.2 % id/organ and the “% id/organ, Liver” value ([1]; 60 min) was 7.7 % id/organ. The “percentage of injected dose, Brain” value [2] was 4.30 percentage of injected dose, the “percentage of injected dose, Kidney” value [2] was 4.0 percentage of injected dose and the “percentage of injected dose, Liver” value [2] was 8.06 percentage of injected dose.

In the case of `CC(=NO)C(C)NCC(C)(C)CNC(C)C(C)=NO` (racemic) [Compound 1, 4,8-diaza-3,6,6,9-tetramethylundecane-2,10-dione bis oxime], the “% injected activity, Bladder + Urine” value [3] is reported as 1.4 % injected activity, the “% injected activity, Brain” value [3] is reported as 1.95 % injected activity and the “% injected activity, Kidneys” value [3] is reported as 1.95 % injected activity. The “% injected activity, Liver” value [3] was 13.0 % injected activity, the “Whole body distribution, Bladder” value [4] was 3.9 and the “Whole body distribution, Brain” value [4] was 3.70. The “Whole body distribution, Liver” value [4] was 23.35, the “removal of radioactivity from brain in humans” value ([4]; in words) was “Slow removal of radioactivity from brain” and the “uptake in the brain of humans” value ([4]; in words) was “Good uptake in the brain”. The “quality of tomographic images of the brain” value [5] was “Good quality tomographic images of the brain”, the “radioactivity associated with blood cells” value (shortened to “radioactivity associated”) (leucocytes; after 5 minutes) was 83% and the “radioactivity associated” value (leucocytes; after 10 minutes) was 89%. For the same molecule, the “radioactivity associated” value (leucocytes; after two minutes) was 60%, the “% id in blood” value ([6]; 14 minutes post injection) was 9.54 % id and the “% id in blood” value ([6]; 40 minutes post injection) was 7.73 % id. The “% id in blood” value ([6]; 60 minutes post injection) was 6.38 % id, the “% id in blood” value ([6]; 250 minutes post injection) was 5.26 % id and the remaining at 2 min [7] was 92%. For the same molecule, the remaining at 1 h [7] was 87%, the remaining at 2 h [7] was 79% and the “in vitro stability of the Tc-99m complex” value [7] was “only slow in vitro degradation”. For the same molecule, the “difference in brain uptake of the d- and l-enantiomers (factor)” value ([8]; d- versus l-enantiomer, rats) was 1.6, the “% id/organ, Blood” value ([9]; 2 min pi) was 16.7 % id/organ and the “% id/organ, Brain” value ([9]; 2 min pi) was 1.5 % id/organ. The “% id/organ, Heart” value ([9]; 2 min pi) was 0.4 % id/organ, the “% id/organ, Liver” value ([9]; 2 min pi) was 8.4 % id/organ and the “% id/organ, Blood” value ([9]; 1 hr pi) was 19.6 % id/organ. For the same molecule, the “% id/organ, Brain” value ([9]; 1 hr pi) was 1.2 % id/organ, the “% id/organ, Heart” value ([9]; 1 hr pi) was 0.2 % id/organ and the “% id/organ, Liver” value ([9]; 1 hr pi) was 5.4 % id/organ. For the same molecule, the “uptake in the brain of rats” value ([9]; in words, unseparated dl/meso mixture) was “Good uptake in the brain”.

In the case of `CC(=NO)[C@H](C)NCC(C)(C)CN[C@@H](C)C(C)=NO` (relative stereo) [Compound 1 d1, dl-4,8-Diaza-3,6,6,9-tetramethylundecane-2,10-dione bis oxime], the “% injected activity, Bladder + Urine” value [3] is reported as 2.28 % injected activity, the “% injected activity, Brain” value [3] is reported as 4.22 % injected activity and the “% injected activity, Kidneys” value [3] is reported as 3.50 % injected activity. The “% injected activity, Liver” value [3] was 10.22 % injected activity, the “percentage of injected dose, Brain” value [2] was 4.16 percentage of injected dose and the “percentage of injected dose, Kidney” value [2] was 3.03 percentage of injected dose. The “percentage of injected dose, Liver” value [2] was 10.73 percentage of injected dose, the “% id/organ, Blood” value ([8]; 2 mins pi, rats) was 11.0 % id/organ and the “% id/organ, Brain” value ([8]; 2 mins pi, rats) was 2.1 % id/organ. The “% id/organ, Heart” value ([8]; 2 mins pi, rats) was 1.2 % id/organ, the “% id/organ, Liver” value ([8]; 2 mins pi, rats) was 11.3 % id/organ and the “% id/organ, Blood” value ([8]; 1 hr pi, rats) was 8.6 % id/organ. The “% id/organ, Brain” value ([8]; 1 hr pi, rats) was 1.6 % id/organ, the “% id/organ, Heart” value ([8]; 1 hr pi, rats) was 0.7 % id/organ and the “% id/organ, Liver” value ([8]; 1 hr pi, rats) was 11.9 % id/organ. The “brain retention and brain imaging, dl-isomer versus meso-isomer” value ([8]; in words) was “surprisingly superior to the complex of the meso-isomer”, the “% id/organ, Blood” value ([10]; 2 min p.i.) was 11.42 % id/organ and the “% id/organ, Brain” value ([10]; 2 min p.i.) was 1.99 % id/organ. The “% id/organ, Liver” value ([10]; 2 min p.i.) was 9.42 % id/organ, the “% id/organ, Blood” value ([10]; 1 hour p.i.) was 10.17 % id/organ and the “% id/organ, Brain” value ([10]; 1 hour p.i.) was 1.90 % id/organ. For the same molecule, the “% id/organ, Liver” value ([10]; 1 hour p.i.) was 9.25 % id/organ and the “difference in brain uptake of the two isomers (factor)” value ([10]; dl versus meso, the better is the dl-isomer) was 2.3.

For `CC(=NO)[C@H](C)NCC(C)(C)CN[C@H](C)C(C)=NO` [Compound 1 meso, meso-4,8-Diaza-3,6,6,9-tetramethylundecane-2,10-dione bis oxime], the “% injected activity, Bladder + Urine” value [3] was 0.6 % injected activity, the “% injected activity, Brain” value [3] was 1.85 % injected activity and the “% injected activity, Kidneys” value [3] was 1.3 % injected activity. For the same molecule, the “% injected activity, Liver” value [3] was 16.6 % injected activity, the “% id/organ, Blood” value ([8]; 2 mins pi, rats) was 5.0 % id/organ and the “% id/organ, Brain” value ([8]; 2 mins pi, rats) was 1.1 % id/organ. For the same molecule, the “% id/organ, Heart” value ([8]; 2 mins pi, rats) was 0.6 % id/organ, the “% id/organ, Liver” value ([8]; 2 mins pi, rats) was 19.9 % id/organ and the “% id/organ, Blood” value ([8]; 1 hr pi, rats) was 3.1 % id/organ. The “% id/organ, Brain” value ([8]; 1 hr pi, rats) was 0.7 % id/organ, the “% id/organ, Heart” value ([8]; 1 hr pi, rats) was 0.2 % id/organ and the “% id/organ, Liver” value ([8]; 1 hr pi, rats) was 23.7 % id/organ. The “% id/organ, Blood” value ([10]; 2 min p.i.) was 5.33 % id/organ, the “% id/organ, Brain” value ([10]; 2 min p.i.) was 0.78 % id/organ and the “% id/organ, Liver” value ([10]; 2 min p.i.) was 26.86 % id/organ. The “% id/organ, Blood” value ([10]; 1 hour p.i.) was 3.17 % id/organ, the “% id/organ, Brain” value ([10]; 1 hour p.i.) was 0.53 % id/organ and the “% id/organ, Liver” value ([10]; 1 hour p.i.) was 24.24 % id/organ.

For `CC(=NO)C(C)NCCCNC(C)C(C)=NO` (racemic) [Compound 2, 4,8-Diaza-3,9-dimethylundecane-2,10-dione bis oxime], the “Whole body distribution, Bladder” value [4] was 21.02, the “Whole body distribution, Brain” value [4] was 3.48 and the “Whole body distribution, Liver” value [4] was 13.21. For the same molecule, the “quality of tomographic images of the brain” value [5] was “less good, due to a higher level of background radiation”, the “% id in blood” value ([6]; 14 minutes post injection) was 11.06 % id and the “% id in blood” value ([6]; 40 minutes post injection) was 6.9 % id. The “% id in blood” value ([6]; 60 minutes post injection) was 5.93 % id, the “% id in blood” value ([6]; 250 minutes post injection) was 3.98 % id and the “blood and tissue background clearance of activity in humans” value ([6]; in words, compound 1 versus complex of compound 2) was “Better blood and tissue background clearance”. The remaining at 2 min [7] was 82%, the remaining at 1 h [7] was 60% and the remaining at 2 h [7] was 47%. The “percent of the Tc-99m not in the form of the complex, Compound 2 relative to Compound 1” value ([7]; at all times) was “more than twice as great”, the “in vitro stability of the Tc-99m complex” value [7] was “greatly inferior to that of the complex of compound 1; also recorded: Far better in vitro stability; also recorded: rapid in vitro degradation” and the “% id/organ, Blood” value ([9]; 2 min pi) was 14.6 % id/organ. The “% id/organ, Brain” value ([9]; 2 min pi) was 1.6 % id/organ, the “% id/organ, Heart” value ([9]; 2 min pi) was 0.5 % id/organ and the “% id/organ, Liver” value ([9]; 2 min pi) was 10.9 % id/organ. The “% id/organ, Blood” value ([9]; 1 hr pi) was 12.4 % id/organ, the “% id/organ, Brain” value ([9]; 1 hr pi) was 1.4 % id/organ and the “% id/organ, Heart” value ([9]; 1 hr pi) was 0.5 % id/organ. For the same molecule, the “% id/organ, Liver” value ([9]; 1 hr pi) was 4.9 % id/organ.
